Key:
[1] = target: T1, COX-2 (UniProt P35354); assay: Assay for COX-2 activity (PGE2 ELISA); settings: read-out: COX-2 IC50; 10–20 minutes pre-incubation, reaction stopped after ten minutes, pH 8.0
T1 sequence (P35354 1-604): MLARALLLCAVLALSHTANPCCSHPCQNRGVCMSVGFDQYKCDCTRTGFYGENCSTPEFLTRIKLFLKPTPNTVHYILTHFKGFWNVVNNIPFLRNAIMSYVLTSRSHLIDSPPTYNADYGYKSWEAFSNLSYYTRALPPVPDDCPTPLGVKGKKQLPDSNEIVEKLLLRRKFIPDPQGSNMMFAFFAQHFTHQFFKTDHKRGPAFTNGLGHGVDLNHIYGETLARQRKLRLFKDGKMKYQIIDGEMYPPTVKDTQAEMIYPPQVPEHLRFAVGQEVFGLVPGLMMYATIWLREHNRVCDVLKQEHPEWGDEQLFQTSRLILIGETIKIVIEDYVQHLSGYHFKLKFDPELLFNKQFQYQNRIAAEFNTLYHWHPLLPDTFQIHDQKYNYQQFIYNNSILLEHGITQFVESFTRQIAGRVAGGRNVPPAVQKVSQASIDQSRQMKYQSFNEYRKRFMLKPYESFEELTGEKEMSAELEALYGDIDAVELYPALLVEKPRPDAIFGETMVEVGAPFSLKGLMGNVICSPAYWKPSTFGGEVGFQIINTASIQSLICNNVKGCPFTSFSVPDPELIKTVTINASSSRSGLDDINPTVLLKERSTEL
Procedure: (§1) Recombinant baculoviruses were isolated by transfecting 4 μg of baculovirus transfer vector DNA into SF9 insect cells (2×10^8) along with 200 ng of linearized baculovirus plasmid DNA by the calcium phosphate method. […] Recombinant viruses were purified by three rounds of plaque purification and high titer (10^7–10^8 pfu/mL) stocks of virus were prepared. For large scale production, SF9 insect cells were infected in 10 liter fermentors (0.5×10^6/mL) with the recombinant baculovirus stock such that the multiplicity of infection was 0.1. […] The homogenate was centrifuged at 10,000×G for 30 minutes, and the resultant supernatant was stored at −80° C. before being assayed for COX activity.
Assay for COX-1 and COX-2 Activity
(§2) COX activity was assayed as PGE2 formed/μg protein/time using an ELISA to detect the prostaglandin released. CHAPS-solubilized insect cell membranes containing the appropriate COX enzyme were incubated in a potassium phosphate buffer (50 mM, pH 8.0) containing epinephrine, phenol, and heme with the addition of arachidonic acid (10 μM). […] The PGE2 formed was measured by standard ELISA technology (Cayman Chemical).

[2] = target: T1, COX-2; assay: Fast assay for COX-2 activity (PGE2 ELISA); format: biochemical, human or murine; settings: fast assay: 10 min pre-incubation at 25° C., reaction stopped after two minutes, pH 7.5
[3] = target: COX-1 (UniProt P23219); assay: Assay for COX-1 activity (PGE2 ELISA); settings: read-out: COX-1 IC50; 10–20 minutes pre-incubation, reaction stopped after ten minutes, pH 8.0
Procedure: as §1
Assay for COX-1 and COX-2 Activity
as §2

Work on `O=C(O)C1=Cc2cc(C(=O)c3ccc(O)cc3)ccc2OC1C(F)(F)F` (stereo not shown) [Example 98, 6-(4-Hydroxybenzoyl)-2-(trifluoromethyl)-2H-1-benzopyran-3-carboxylic acid] yielded an IC50 [1] of 1500 nM, a melting point of 234 to 239.5 °C and an IC50 [2] of 2000 nM. It also gave an IC50 [3] of 19000 nM.
`Cc1cccc(C)c1Oc1cc2c(cc1Cl)C=C(C(=O)O)C(C(F)(F)F)O2` (stereo not shown) [Example 190, 6-Chloro-7-(2,6-dimethylphenoxy)-2-(trifluoromethyl)-2H-1-benzopyran-3-carboxylic acid] showed an IC50 [1] of 500 nM, a melting point of 252.7 to 258.6 °C and an IC50 [2] of 500 nM. The IC50 [3] was 37400 nM.
With `O=C(O)C1=Cc2cc(Cl)cc(-c3ccc(Cl)cc3)c2OC1C(F)(F)F` (stereo not shown) [Example 125, 6-Chloro-8-(4-chlorophenyl)-2-(trifluoromethyl)-2H-1-benzopyran-3-carboxylic acid] the IC50 [1] was less than 100 nM, the melting point was 205.5 to 207.3 °C and the IC50 [2] was less than 100 nM. The IC50 [3] was less than 100 nM.
In the case of `O=C(O)C1=Cc2cc(Cl)c(I)cc2OC1C(F)(F)F` (stereo not shown) [Example 180, 6-Chloro-7-iodo-2-(trifluoromethyl)-2H-1-benzopyran-3-carboxylic acid], the IC50 [1] is reported as less than 100 nM, the melting point is reported as 224.9 to 225.9 °C and the IC50 [2] is reported as less than 100 nM. It also gave an IC50 [3] greater than 100000 nM.
Work on `O=C(O)C1=Cc2cc(Cl)c([S+]([O-])c3ccc(Cl)cc3)cc2OC1C(F)(F)F` (stereo not shown) [Example 193, 6-Chloro-7-[(4-chlorophenyl)sulfinyl]-2-(trifluoromethyl)-2H-1-benzopyran-3-carboxylic acid] yielded an IC50 [1] greater than 100000 nM, a melting point of 213.8 to 217.4 °C and an IC50 [2] of 1200 nM. It also gave an IC50 [3] greater than 100000 nM.
Molecule `O=C(O)C1=Cc2cc(Cl)c(Sc3ccc(Cl)cc3)cc2OC1C(F)(F)F` (stereo not shown) [Example 192, 6-Chloro-7-[(4-chlorophenyl)thio]-2-(trifluoromethyl)-2H-1-benzopyran-3-carboxylic acid] has an IC50 [1] of 1400 nM, a melting point of 251.7 to 253.3 °C and an IC50 [2] of less than 100 nM. It also gave an IC50 [3] of 12300 nM.
For `O=C(O)C1=Cc2cc(Cl)cc(-c3cccs3)c2OC1C(F)(F)F` (stereo not shown) [Example 116, 6-Chloro-8-(2-thienyl)-2-(trifluoromethyl)-2H-1-benzopyran-3-carboxylic acid], the IC50 [1] was less than 100 nM, the melting point was 257.5 to 258.8 °C and the IC50 [2] was less than 100 nM. The IC50 [3] was less than 100 nM.
For `O=C(O)C1=Cc2ccc(Oc3ccccc3)cc2OC1C(F)(F)F` (stereo not shown) [Example 176, 7-Phenoxy-2-(trifluoromethyl)-2H-1-benzopyran-3-carboxylic acid], the IC50 [1] was 2000 nM, the melting point was 180 to 181 °C and the IC50 [2] was less than 100 nM. The IC50 [3] was 3300 nM.
Work on `O=C(O)C1=Cc2cc(Cl)c(OCC(F)(F)F)cc2OC1C(F)(F)F` (stereo not shown) [Example 209] yielded an IC50 [1] greater than 100000 nM, a melting point of 174.4 to 176 °C and an IC50 [2] of 200 nM. For the same molecule, the IC50 [3] was greater than 100000 nM.
`O=C(O)C1=Cc2cc(Cl)cc(-c3ccccc3)c2OC1C(F)(F)F` (stereo not shown) [Example 129, 6-Chloro-8-phenyl-2-(trifluoromethyl)-2H-1-benzopyran-3-carboxylic acid] gave an IC50 [1] of less than 100 nM, a melting point of 196.3 to 197.7 °C and an IC50 [2] of 200 nM. The IC50 [3] was 300 nM.
Molecule `O=C(O)C1=Cc2cc(Cl)c(Oc3ccc4cc(Br)ccc4c3)cc2OC1C(F)(F)F` (stereo not shown) [Example 189, 7-[(6-Bromo-2-naphthalenyl)oxy]-6-chloro-2-(trifluoromethyl)-2H-1-benzopyran-3-carboxylic acid] has an IC50 [1] of 1200 nM, a melting point of 252.6 to 254.8 °C and an IC50 [2] of less than 100 nM. It also gave an IC50 [3] of 44800 nM.
For `O=C(O)C1=Cc2c(F)ccc(Br)c2OC1C(F)(F)F` (stereo not shown) [Example 45, 8-Bromo-5-fluoro-2-trifluoromethyl-2H-1-benzopyran-3-carboxylic acid], the IC50 [1] was 46000 nM, the melting point was 221.7 to 223.3 °C and the IC50 [2] was 200 nM. The IC50 [3] was greater than 100000 nM.
`O=C(O)C1=Cc2cc(C(F)(F)C(F)(F)F)ccc2OC1C(F)(F)F` (stereo not shown) [Example 88, 6-(Pentafluoroethyl)-2-(trifluoromethyl)-2H-1-benzopyran-3-carboxylic acid] showed an IC50 [1] of less than 100 nM, a melting point of 162.3 to 164.7 °C and an IC50 [2] of less than 100 nM. It also gave an IC50 [3] of 6400 nM.
In the case of `CC(C)(CO)c1ccc2c(c1)OC(C(F)(F)F)C(C(=O)O)=C2` (stereo not shown) [Example 179, 7-(2-Hydroxy-1,1-dimethylethyl)-2-(trifluoromethyl)-2H-1-benzopyran-3-carboxylic acid], the IC50 [1] is reported as 16000 nM, the melting point is reported as 228.9 to 230 °C and the IC50 [2] is reported as 15600 nM. It also gave an IC50 [3] greater than 100000 nM.
`CS(=O)(=O)c1ccc2c(c1)C=C(C(=O)O)C(C(F)(F)F)O2` (stereo not shown) [Example 56, 6-Methylsulfonyl-2-trifluoromethyl-2H-1-benzopyran-3-carboxylic acid] showed an IC50 [1] of 29000 nM, a melting point of 208.3 to 212.4 °C and an IC50 [2] of 12000 nM. The IC50 [3] was greater than 100000 nM.
`O=C(O)C1=Cc2cc(C(=O)c3ccc(Cl)cc3)ccc2OC1C(F)(F)F` (stereo not shown) [Example 97, 6-(4-Chlorobenzoyl)-2-(trifluoromethyl)-2H-1-benzopyran-3-carboxylic acid] showed an IC50 [1] of 100 nM, a melting point of 268.3 to 269.4 °C and an IC50 [2] of 200 nM. For the same molecule, the IC50 [3] was 25000 nM.
Work on `O=C(O)C1=Cc2cc(Oc3ccc(C(F)(F)F)cc3)ccc2OC1C(F)(F)F` (stereo not shown) [Example 101, 2-(Trifluoromethyl)-6-[4-(trifluoromethyl)phenoxy)-2H-1-benzopyran-3-carboxylic acid] yielded an IC50 [1] of less than 100 nM, a melting point of 153.5 to 154.4 °C and an IC50 [2] of less than 100 nM. For the same molecule, the IC50 [3] was 16000 nM.
In the case of `O=C(O)C1=Cc2cc(Cl)c(Oc3cccnc3)cc2OC1C(F)(F)F` (stereo not shown) [Example 201, 6-Chloro-7-[3-pyridinyloxy]-2-(trifluoromethyl)-2H-1-benzopyran-3-carboxylic acid], the IC50 [1] is reported as 100 nM, the melting point is reported as 237.8 to 238.8 °C and the IC50 [2] is reported as less than 100 nM. It also gave an IC50 [3] of 63800 nM.
`CC(C)CNS(=O)(=O)c1ccc2c(c1)C=C(C(=O)O)C(C(F)(F)F)O2` (stereo not shown) [Example 55, 6-[(2-Methylpropyl)aminosulfonyl]-2-trifluoromethyl-2H-1-benzopyran-3-carboxylic acid] gave an IC50 [1] of 53000 nM, a melting point of 190.6 to 192.4 °C and an IC50 [2] of 46000 nM. It also gave an IC50 [3] greater than 100000 nM.
For `O=C(O)C1=Cc2cc(Cl)cc(C#Cc3ccccc3)c2OC1C(F)(F)F` (stereo not shown) [Example 120, 6-Chloro-8-(phenylethynyl)-2-(trifluoromethyl)-2H-1-benzopyran-3-carboxylic acid], the IC50 [1] was less than 100 nM, the melting point was 190.1 to 192.1 °C and the IC50 [2] was less than 100 nM. The IC50 [3] was 33000 nM.
With `O=C(O)C1=Cc2cc(Cl)c(Oc3ccc(F)c(F)c3)cc2OC1C(F)(F)F` (stereo not shown) [Example 198, 6-Chloro-7-(3,4-difluorophenoxy)-2-(trifluoromethyl)-2H-1-benzopyran-3-carboxylic acid] the IC50 [1] was less than 100 nM, the melting point was 191.9 to 193.1 °C and the IC50 [2] was less than 100 nM. It also gave an IC50 [3] of 12400 nM.
`O=C(O)C1=Cc2cc(Br)cc(Br)c2OC1C(F)(F)F` (stereo not shown) [Example 33, 6,8-Dibromo-2-trifluoromethyl-2H-1-benzopyran-3-carboxylic acid] gave an IC50 [1] of 8200 nM, a melting point of 225 to 226 °C and an IC50 [2] of less than 100 nM. For the same molecule, the IC50 [3] was 28000 nM.
Molecule `O=C(O)C1=Cc2cc(Cl)cc(Br)c2OC1C(F)(F)F` (stereo not shown) [Example 15, 8-Bromo-6-chloro-2-trifluoromethyl-2H-1-benzopyran-3-carboxylic acid] has an IC50 [1] of 134000 nM, a melting point of 227.8 to 228.9 °C and an IC50 [2] greater than 100 nM. For the same molecule, the IC50 [3] was 44000 nM.
For `O=C(O)C1=Cc2cc(Cl)c(Oc3ccc(Cl)cc3)cc2OC1C(F)(F)F` (stereo not shown) [Example 184, 6-Chloro-7-(4-chlorophenoxy)-2-(trifluoromethyl)-2H-1-benzopyran-3-carboxylic acid], the IC50 [1] was less than 100 nM, the melting point was 205.4 to 206.5 °C and the IC50 [2] was less than 100 nM. The IC50 [3] was 1300 nM.
With `C=Cc1cc2c(cc1Cl)C=C(C(=O)O)C(C(F)(F)F)O2` (stereo not shown) [Example 182, 6-Chloro-7-ethenyl-2-(trifluoromethyl)-2H-1-benzopyran-3-carboxylic acid] the IC50 [1] was greater than 100000 nM, the melting point was > 200 °C (dec.) and the IC50 [2] was less than 100 nM. It also gave an IC50 [3] greater than 100000 nM.
With `O=C(O)C1=Cc2cc(Br)cc(Cl)c2OC1C(F)(F)F` (stereo not shown) [Example 42, 6-Bromo-8-chloro-2-trifluoromethyl-2H-1-benzopyran-3-carboxylic acid] the IC50 [1] was less than 100 nM, the melting point was 220.7 to 221.7 °C and the IC50 [2] was less than 100 nM. It also gave an IC50 [3] of 11000 nM.
In the case of `C#Cc1cc2c(cc1Cl)C=C(C(=O)O)C(C(F)(F)F)O2` (stereo not shown) [Example 181, 6-Chloro-7-ethynyl-2-(trifluoromethyl)-2H-1-benzopyran-3-carboxylic acid], the IC50 [1] is reported as greater than 100000 nM, the melting point is reported as greater than 300 °C and the IC50 [2] is reported as 1500 nM. It also gave an IC50 [3] greater than 100000 nM.
In the case of `O=C(O)C1=Cc2c(ccc3oc4ccccc4c23)OC1C(F)(F)F` (stereo not shown) [Example 106, 3-(Trifluoromethyl)-3H-benzofuro[3,2-f][1]benzopyran-2-carboxylic acid], the IC50 [1] is reported as less than 100 nM, the melting point is reported as 253.5 to 256 °C and the IC50 [2] is reported as 200 nM. The IC50 [3] was 5700 nM.

From patent US7138411B2, “Substituted benzopyran derivatives for the treatment of inflammation” (G.D. Searle & Co., priority 1997, dated 2006)
